In patent US20130210167A1, “IMMUNOASSAY FOR PYRROLIDINOPHENONES” (RANDOX LABORATORIES LIMITED, priority 2012, published 2013):
Counter-ions that a name gives are not always drawn. Like-named read-outs stand apart in the source and are kept apart here.

Tested on: polyclonal antibody raised to Immunogen IV
Experiment: Competitive biochip immunoassay of pyrrolidinophenones and potential cross-reactants (Evidence Investigator)
Assay type: binding, sheep
[1] = Table 2, further cross-reactivity results, competition with Hapten-A HRP conjugate

Compound | % Cross-reactivity | further results
COc1cc(CC(C)N)cc(OC)c1OC.Cl (racemic) [(+/−)-3,4,5-Trimethoxyamphetamine hydrochloride] | <1% | –
CCCC(C(=O)c1ccc2ccccc2c1)N1CCCC1.Cl (racemic) [(RS)-1-(2-Naphthyl)-2-(pyrrolidin-l-yl)pentanone HCl] | – | % Cross-Reactivity: 44%
CCCCC(C(=O)c1ccc(C)cc1)N1CCCC1.Cl (racemic) [(RS)-1-(4-Methylphenyl)-2-(pyrrolidin-1-yl)hexanone HCl] | 48.4% | –
CCC(C(=O)c1ccc(C)cc1)N1CCCC1.Cl (racemic) [(RS)-1-(4-Methylphenyl)-2-(pyrrolidin-l-yl)butanone HCl] | – | % Cross-Reactivity: 34%
CCC(C(=O)c1ccc2c(c1)OCO2)N1CCCC1 (racemic) [(RS)-1-(Benzo[d][1,3]dioxol-5-yl)-2-(pyrrolidin-1-yl)butanone HCl] | – | % Cross-Reactivity: 192%
CCCC(C(=O)c1ccc2c(c1)OCO2)N1CCCC1.Cl (racemic) [(RS)-1-(Benzo[d][1,3]dioxol-5-yl)-2-(pyrrolidin-1-yl)pentanone HCl] | 100% | % Cross-Reactivity: 100%
CC(C(=O)c1ccc2c(c1)OCO2)N1CCCC1.Cl (racemic) [(RS)-1-(Benzo[d][1,3]dioxol-5-yl)-2-(pyrrolidin-1-yl)propanone HCl] | – | % Cross-Reactivity: 12%
CNC(C)Cc1ccc2c(c1)OCO2 (racemic) [(RS)-1-(Benzo[d][1,3]dioxol-5-yl)-N-methylpropan-2-amine] | – | % Cross-Reactivity: <1%
CC(N)Cc1ccc2c(c1)OCO2 (racemic) [(RS)-1-(benzo[d][1,3]dioxol-5-yl)propan-2-amine] | – | % Cross-Reactivity: <1%
Cl.NC1(c2ccccc2Cl)CCCCC1=O (racemic) [(±)-Norketamine HCl] | <1% | –
CCCC(C(=O)c1ccc(C)cc1)N1CCCC1 (racemic) [Pyrovalerone HCl, (RS)-1-(4-methylphenyl)-2-(1-pyrrolidinyl)pentan-1-one] | 44.4% | –
CCC(=O)OC(Cc1ccccc1)(c1ccccc1)C(C)CNC.O=C(O)/C=C\C(=O)O (single isomer, unassigned; (+)) [(+)-Norpropoxyphene maleate] | <1% | –
CN1CCCC1c1cccnc1 (single isomer, unassigned; (-)) [(−)-Nicotine] | <1% | –
Oc1ccccc1O [1,2 Dihydroxybenzene (Catechol), 1,2 Dihydroxybenzene] | <1% | –
Cl.c1ccc(C2(N3CCCCC3)CCCCC2)cc1 [1-(1-phenylcyclohexyl)piperidine) HCl] | <1% | –
Cl.Clc1cccc(N2CCNCC2)c1 [1-(3-Chlorophenyl)piperazine HCl] | – | % Cross-Reactivity: <1%
CN1CCN(Cc2ccccc2)CC1.Cl.O [1-Benzyl-4-methylpiperazine HCl monohydrate] | <1% | –
c1ccc(CN2CCNCC2)cc1 [1-Benzylpiperazine] | – | % Cross-Reactivity: <1%
O=C(CN1CCCC1)c1ccccc1 [1-Phenyl-2(1-pyrrolidinyl)ethanone] | – | % Cross-reactivity [1]: <1%
CN1C(=O)CN=C(c2ccccc2F)c2cc(N)ccc21 [7-NH Flunitrazepam] | <1% | –
CN[C@@H](C)[C@@H](O)c1ccccc1.Cl [(+)-Pseudoephedrine HCl] | – | % Cross-Reactivity: <1%
CN1C(=O)CC[C@H]1c1cccnc1 [(−)-Cotinine] | <1% | –
CC(=O)Nc1ccc(O)cc1 [Acetaminophen] | <1% | –
CC(NC(C)(C)C)C(=O)c1cccc(Cl)c1 (stereo not shown) [Bupropion HCl] | <1% | –

Compound | % Cross-reactivity | further results
CCC(NC)C(=O)c1ccc2c(c1)OCO2.Cl (stereo not shown) [Butylone HCl] | 11.4% | binding of antibodies of the invention (in words): able to bind
C[C@H](N)Cc1ccccc1 [D-Amphetamine] | – | % Cross-Reactivity: <1%
COc1ccc2c(c1)[C@]13CCCC[C@@H]1[C@H](C2)N(C)CC3 [Dextromethorphan hydrobromide monohydrate] | <1% | –
CCN(CC)C(C)C(=O)c1ccccc1 (stereo not shown) [Diethylpropion HCl] | <1% | –
CCO[C@@H]1O[C@H](C(=O)O)[C@@H](O)[C@H](O)[C@H]1O [Ethyl-glucuronide] | <1% | –
CNC(C)C(=O)c1ccc(F)cc1.Cl (stereo not shown) [Flephedrone HCl] | <1% | –
CNCCC(Oc1ccc(C(F)(F)F)cc1)c1ccccc1 (stereo not shown) [Fluoxetine HCl] | <1% | –
O=C(CCCN1CCC(O)(c2ccc(Cl)cc2)CC1)c1ccc(F)cc1 [Haloperidol] | <1% | –
CC(=O)Oc1ccc2c3c1O[C@H]1[C@@H](OC(C)=O)C=C[C@H]4[C@@H](C2)N(C)CC[C@@]341 [Heroin] | <1% | –
COc1ccc2c3c1O[C@H]1C(=O)CC[C@H]4[C@@H](C2)N(C)CC[C@]314 [Hydrocodone] | <1% | –
CC(C)Cc1ccc(C(C)C(=O)O)cc1 (stereo not shown) [Ibuprofen] | <1% | –
O=C(O)c1c[nH]c2ccccc12 [Indole-3-carboxylic acid] | – | % Cross-reactivity [1]: <1%
CCCCCn1cc(C(=O)c2cccc3ccccc23)c2ccccc21 [JWH-018] | – | % Cross-Reactivity: <1%
CCCCCn1cc(C(=O)Cc2ccccc2OC)c2ccccc21 [JWH-250] | – | % Cross-Reactivity: <1%
CCN(CC)C(=O)[C@@H]1C=C2c3cccc4[nH]cc(c34)C[C@H]2N(C)C1 [LSD] | <1% | –
O=C1Nc2ccc(Cl)cc2C(c2ccccc2Cl)=NC1O (stereo not shown) [Lorazepam] | <1% | –
CNC(C)C(=O)c1ccc(C)cc1 (stereo not shown) [Mephedrone HCl] | – | % Cross-Reactivity: <1%
CCCC(C)(COC(N)=O)COC(N)=O [Meprobamate] | <1% | –
COc1cc(CCN)cc(OC)c1OC [Mescaline HCl] | – | % Cross-Reactivity: <1%
CCC(=O)C(CC(C)N(C)C)(c1ccccc1)c1ccccc1 (stereo not shown) [Methadone] | <1% | –
CN[C@@H](C)Cc1ccccc1 [Methamphetamine HCl] | – | % Cross-Reactivity: <1%
Cc1ccccc1-n1c(C)nc2ccccc2c1=O [Methaqualone] | <1% | –
CNC(C)C(=O)c1ccc2c(c1)OCO2 (stereo not shown) [Methylone HCl] | <1% | –
COC(=O)C(c1ccccc1)C1CCCCN1 (stereo not shown) [Methylphenidate HCl] | <1% | –

Compound | % Cross-reactivity | further results
C=CCN(CC=C)CCc1c[nH]c2ccc(OC)cc12 [N,N-diallyl-5-methoxytryptamine] | <1% | –
Cc1ccc(C(=O)C(C)N)cc1.Cl (stereo not shown) [Nor-mephedrone HCl] | <1% | –
CNCCCC1(c2ccc(F)cc2)OCc2cc(C#N)ccc21 (stereo not shown) [Norescitalopram] | <1% | –
CCOC(=O)C1(c2ccccc2)CCNCC1 [Normeperidine] | <1% | –
CNCCC=C1c2ccccc2CCc2ccccc21 [Nortriptyline HCl] | <1% | –
COc1ccc2c3c1O[C@H]1C(=O)CC[C@@]4(O)[C@@H](C2)N(C)CC[C@]314 [Oxycodone] | <1% | –
CCCC(NC)C(=O)c1ccccc1.Cl (stereo not shown) [Pentedrone HCl] | <1% | –
CCCC(NC)C(=O)c1ccc2c(c1)OCO2.Cl (stereo not shown) [Pentylone HCl] | 17.4% | binding of antibodies of the invention (in words): able to bind
NCCc1ccccc1.O=S(=O)(O)O [Phenethylamine sulphate] | <1% | –
O=C(O)c1ccccc1O [Salicylic acid] | <1% | –
COC(=O)[C@@H]1C[C@H](OC(C)=O)C(=O)[C@H]2[C@@]1(C)CC[C@H]1C(=O)O[C@H](c3ccoc3)C[C@]21C [Salvinorin A] | – | % Cross-Reactivity: <1%
CN[C@H]1CC[C@@H](c2ccc(Cl)c(Cl)c2)c2ccccc21 [Sertraline HCl] | <1% | –
COc1cccc(C2(O)CCCCC2CN(C)C)c1 (stereo not shown) [Tramadol HCl] | <1% | –
Cl.O=c1n(CCCN2CCN(c3cccc(Cl)c3)CC2)nc2ccccn12 [Trazadone HCl] | <1% | –
O=C(O)[C@H]1O[C@@H](OCC(Cl)(Cl)Cl)[C@H](O)[C@@H](O)[C@@H]1O [Urochloralic acid] | – | % Cross-reactivity [1]: <1%
CCN(C(C)=O)c1cccc(-c2ccnc3c(C#N)cnn23)c1 [Zaleplon] | <1% | –
Cc1ccc(-c2nc3ccc(C)cn3c2CC(=O)N(C)C)cc1 [Zolpidem tartrate] | <1% | –
CN1CCN(C(=O)OC2c3nccnc3C(=O)N2c2ccc(Cl)cn2)CC1 (stereo not shown) [Zopiclone] | <1% | –
(−)-11-nor-9-Carboxy-delta9-THC | <1% | –
(−)-Delta9-THC | <1% | –
Dihydroxymephedrone HCl | <1% | –
Prolatine | <1% | –
